Reference: PMC11096368, “Transcriptomic signature, bioactivity and safety of a non-hepatotoxic analgesic generating AM404 in the midbrain PAG region” (Scientific Reports, 2024)

Columns and labels:
Type in all cases: in vivo
liver of CD1 mice = assay: Hepatotoxicity at 600 mg/kg: nitrotyrosine, ZO-1 tight junctions, TUNEL, liver function tests; details: 15 out of 20 ApAP treated animals; data not shown
Sprague–Dawley rats = assay: CFA-induced inflammatory pain / Hargreaves thermal sensitivity assay; details: high dose (100 mg/kg)
From the text: In these same cohorts of animals, we simultaneously measured their thermal nociception to hyperalgesia with the Hargreaves test using the plantar test apparatus (Ugo Basile 37,570). In this experimental setup, the rodents are placed in plastic cages on top of a glass surface, and their hind paws are subjected to an infrared heat stimulus. One hind paw at a time is stimulated with the light source (noxious stimuli) until the animal retracts the paw from the glass surface because of the stimulus. Baseline withdrawal thresholds (latency) of both the right and left paws were recorded, and animals were assigned to different treatment groups so that each group had approximately equal withdrawal threshold averages in both paws. After baseline testing, treated animals received subcutaneous plantar injection (150 μl) of 50% CFA into the left hind paw, while control animals received a plantar injection (150 µl) of 0.9% NaCl into their left hind paw. CFA induces inflammation, resulting in a left hind paw that is hypersensitive to the thermal stimulus, while the right hind paw serves as a within-subject baseline for each animal. To obtain Hargreaves withdrawal latency recordings, each animal was placed in an individual plastic observation compartment on a glass platform, which provided access to the plantar surface of the hind paws from underneath. After acclimation to the environment for 30 min, thermal hypersensitivity was assessed by stimulating the mid-plantar area of each hind paw with a bright light source attached to the meter (Ugo Basile 37,570) until animals withdrew the paw from the surface. The withdrawal threshold was defined as the average time (s) required for the rat to withdraw the stimulated paw. A brisk withdrawal of the paw (often followed by a sustained retraction and/or licking) was considered a positive response, but paw withdrawals due to locomotion or weight shifting were not counted. The Hargreaves studies were conducted with the plantar stimulation device that automatically registers the time (s) necessary to elicit paw withdrawal in order to eliminate bias in determining paw withdrawal thresholds. A cutoff of 20 s is pre-programmed so that the light source shuts off at that maximal period so as to not induce any burns on the plantar surface of the rodents. The Hargreaves test permits measurement of ipsilateral and contralateral heat thresholds, allowing each animal to serve as its own internal control in unilateral pain models. In addition, the Hargreaves test enables quantification of heat thresholds in unrestrained animals, reducing the likelihood of stress-induced responses.

CD-1 male mice = assay: LPS fever induction antipyresis assay; details: 75 mg/kg PO, LPS 100 μg/kg ip, n = 20
Procedure: (§1) Antipyresis experiments were carried out with n = 60 CD-1 male mice weighing between 45 and 50 g. All mice were kept in a 12-h day/12-h night cycle with free access to food and water ad libitum. After habituating and acclimating the mice for a week, each mouse was briefly anesthetized for 1 min with 1% isoflurane and implanted subcutaneously a transmitter probe that records core body temperature – Implantable Programmable Temperature Transponder (IPTT-300) by Bio Medic Data Systems (BMDS), DE, USA. The mice were allowed to recover for at least one week from the surgery before any recordings were made and observed in their home cages prior to pyrogen challenge for inducing fever. Temperatures were recorded using the BMDS DAS-8027-IUS data reading system.
All mice were fasted overnight (15 h) with free access to water ad libitum prior to the pyrogen challenge. For the induction of fever, LPS from E. coli (100 μg/kg, 0111:B4) (MilliporeSigma, Billerica, MA, USA) was used. Mice received either LPS in 0.9% saline (sterile) (vehicle) or just 0.9% saline as an intraperitoneal (ip) injection.
All drugs and vehicle (10% DMSO: 10% labrasol :80% PEG400) were administered by oral gavage, PO dosing. Each dosing volume was ~ 0.3–0.4 mL per mouse. […] We chose this dose to record antipyretic effect in a low dose that doesn’t cause hypothermia in mice.

male CD1 mice = assay: Baker yeast-induced hyperthermia antipyresis assay; details: 75 mg/kg per os, n = 10
Procedure: as §1
15% yeast, 0.1 mL/kg (MilliporeSigma, Billerica, MA, USA) was used to induce fever. All animals used in this assay were male CD1 mice, which were fasted overnight (15 h) before the start of the assay.
Mice received either yeast in 0.9% saline (sterile) (vehicle) or just 0.9% saline as an ip injection. […] All mice that didn’t show a significant change in body temperature or appeared sick post-pyrogen challenge were excluded (n = 5) from subsequent drug administrations.
All drugs and vehicle (10% DMSO: 10% labrasol :80% PEG400) were administered by oral gavage, PO administration. Each dosing volume was ~ 0.3–0.4 mL per mouse. […]

[1] = young male and young female rats

Compound: CCN(CC)C(=O)c1ccccc1S(=O)(=O)NCC(=O)Nc1ccc(O)cc1 [SRP-001, N,N-diethyl-2-[[2-(4-hydroxyanilino)-2-oxo-ethyl]sulfamoyl]benzamide]
- Animals dead in 48 h (liver of CD1 mice): none
- Analgesia in Hargreaves assay (paw withdrawal latencies) (Sprague–Dawley rats; aged male rats): significant analgesia
- Analgesia in Hargreaves assay (paw withdrawal latencies) (Sprague–Dawley rats; [1]): significant analgesia
- Antipyresis, LPS fever (CD-1 male mice): comparable antipyresis
- Antipyresis, yeast fever (core body temperature) (male CD1 mice): subsequent reduction in core body temperature

Compound: CC(=O)Nc1ccc(O)cc1 [ApAP, acetaminophen, reference compound]
- Animals dead in 48 h (liver of CD1 mice): 75%
- Analgesia in Hargreaves assay (paw withdrawal latencies) (Sprague–Dawley rats; aged male rats): significant analgesia
- Analgesia in Hargreaves assay (paw withdrawal latencies) (Sprague–Dawley rats; [1]): significant analgesia
- Antipyresis, LPS fever (CD-1 male mice): comparable antipyresis
- Antipyresis, yeast fever (core body temperature) (male CD1 mice): subsequent reduction in core body temperature
